Data as given in patent US8058270B2, “Dihydropteridinones for the treatment of cancer diseases” (Boehringer Ingelheim International GmbH, priority 2004, dated 2011).

Key:
[1] = system: cultivated human tumour cells; experiment: Alamar Blue cytotoxicity assay (general); format: cell-based; conditions: summary in words, see Table 1
Text: Alamar Blue™ Cytotoxicity Assays
The Alamar Blue™ assay is designed to measure quantitatively the proliferation of cells by incorporating a fluorometric/colorimetric growth indicator based on the detection of metabolic activity.
Cell culture: The various human tumor cell lines can be purchased from American Type Culture Collection (ATCC) or the German Collection of Microorganisms and Cell Cultures (DSMZ) and cultivated in 75 to 175 cm^2 tissue culture flasks in the medium indicated by the supplier. The cells are maintained at 37° C. and 5% CO2 in a humidified atmosphere, with an appropriate split ratio. Logarithmically growing cells are used for the assays.
Assay conditions: On day one of the experiment 1000-4000 cells (in 100 μl medium) are seeded into each well of a sterile 96-well plate. The number of cells used is dependent on the growth rate and size of the cells. Eight wells on each plate are left free to accommodate for controls (4 wells for medium plus reduced AlamarBlue™, and 4 wells for medium plus oxidized AlamarBlue™). The plates are kept in the incubator overnight. On day two of the experiment serial dilutions of the inhibitor are prepared in medium containing 0.1% DMSO. […] After 4-5 h of incubation, the plates are measured in a fluorescence spectrophotometer (excitation 530 nm, emission 590 nm, slits 15, integrate time 0.1). […]

[2] = system: cultivated human tumour cells; experiment: FACS analysis on PI stained tumor cells, cell cycle progression (general); format: cell-based; conditions: summary in words, see Table 1
Text: FACS Analysis on PI Stained Tumor Cells
Propidium iodine (PI) binds stoichiometrically to double stranded DNA and thus is a suitable agent to measure the DNA content of cells in order to determine the percentage of cells residing in various cell cycle stages (G0/1-, S- and G2/M-phases), whereas cells in G0 or G1 phase do have a diploid DNA content (2N) cells in G2 and M-phase (mitosis) do have a doubled (4N) DNA content.
Cell culture: The various human tumor cell lines can be purchased from American Type Culture Collection (ATCC) or the German Collection of Microorganisms and Cell Cultures (DSMZ) and cultivated in 75 to 175 cm^2 tissue culture flasks in the medium indicated by the supplier. […]
Data analysis: Analysis of the DNA content of the cells can be performed using a FACS analyzer equipped with an argon laser (500 mW, emission 488 nm) and the use of the DNA Cell Quest analysis software (Beckton Dickinson). The logarithmic PI fluorescence is determined in a band-pass filter (Beckton Dickinson 585/43). Quantification of the cell populations residing in the individual cell cycle phases (e.g. G0/G1-, S- and G2/M-phases) is done with the ModFit LT software package from Becton Dickinson. An EC50 value for cells arrested at the G2/M-phase of the cell cycle is calculated by using a sigmoidal curve analysis program (Graph Pad Prism version 3.03).

CC[C@@H]1C(=O)N(C)c2cnc(Nc3ccc(C(=O)NC4CCN(C)CC4)cc3OC)nc2N1C1CCCC1 [Example 46, 4-[[(7R)-8-cyclopentyl-7-ethyl-5,6,7,8-tetrahydro-5-methyl-6-oxo-2-pteridinyl]amino]-3-methoxy-N-(1-methyl-4-piperidinyl)-benzamide]
activity in cytotoxicity tests on cultivated human tumour cells [1]: good to very good activity | inhibitory effect on cell cycle progression by FACS analysis [2]: good to very good activity
